Assay: xn = mol fraction of the nth substance listed
Conditions: 100 kPa

CCCC[n+]1ccn(C)c1.F[P-](F)(F)(F)(F)F + C=CN1CCCC1=O
x1 = 1
Conditions | speed of sound [m/s]
298.15 K | 1443.8
303.15 K | 1431.7
308.15 K | 1419.8
313.15 K | 1408.2
318.15 K | 1396.8
323.15 K | 1385.6

C=CN1CCCC1=O + CCCC[n+]1ccn(C)c1.F[P-](F)(F)(F)(F)F
speed of sound [m/s]
Conditions | x2 = 0 | x2 = 0.1011 | x2 = 0.2059 | x2 = 0.3019 | x2 = 0.3937 | x2 = 0.5023 | x2 = 0.584 | x2 = 0.6946 | x2 = 0.7788 | x2 = 0.8707
298.15 K | 1521.5 | – | 1506 | 1496.4 | 1487.8 | 1477.6 | 1470.5 | 1461.5 | 1455.7 | 1449.9
303.15 K | – | 1498.9 | 1490.1 | – | 1473.5 | 1463.9 | 1457.4 | 1449.1 | 1443.4 | 1437.9
308.15 K | 1483.7 | 1481.8 | – | – | 1459.2 | 1450.2 | 1444.3 | – | 1431.1 | 1425.8
313.15 K | 1465 | 1464.7 | 1458.3 | – | 1444.9 | – | 1431.2 | – | 1419 | 1414
318.15 K | 1446.5 | – | – | 1436.6 | 1430.9 | 1423.4 | 1418.4 | 1411.6 | 1407 | 1402.3
323.15 K | – | 1431.1 | – | – | 1416.9 | 1410.2 | 1405.7 | 1399.4 | 1395.1 | 1390.8

Reference: a compilation of properties of binary mixtures (doi:10.1007/s10973-018-7427-0)
